The numbers were not newly measured in patent publication US20250009647A1, “PHARMACEUTICAL COMPOSITION” (priority 2021, published 2025), which cites them from elsewhere.

Each structure is given as a SMILES string.

For data set [1] the following is noted: in DMSO.
For data set [2] the following is noted: in water.

In the case of `O=C(O)C(=O)O` [Oxalic acid], the “pKa(DMSO)” value in data set [1] is 6.2. Also, the “pKa(H2O)” value in data set [2] is 1.46. For the compound `O=C(O)c1cc2ccccc2c(Cc2c(O)c(C(=O)O)cc3ccccc23)c1O` [Pamoic acid], the “pKa(H2O)” value in data set [2] is on record as 2.67. For `NS(=O)(=O)O` [Sulfamic acid], the “pKa(DMSO)” value in data set [1] is on record as 6.5. For the same compound, the “pKa(H2O)” value in data set [2] is on record as 0.99.
